Results on 28 compounds are retold here after patent US20250333424A1, “ANTIVIRAL COMPOUNDS” (Gilead Sciences, Inc., priority 2024, published 2025).

The assay deals with monocytic THP1 cells infected with HIV VSV-G pseudotyped GFP-NEF reporter virus. As to the kind of experiment: cells. To be noted: Human immunodeficiency virus 1, THP-1, 24 h. The class given is cell-based.

For `Cc1cc(/C=C/C#N)cc(C)c1Oc1nc(NC23CC(C#N)(C2)C3)nc2[nH]nc(-c3ccn(C)n3)c12` [Compound 107, (E)-3-((4-(4-(2-cyanovinyl)-2,6-dimethylphenoxy)-3-(1-methyl-1H-pyrazol-3-yl)-1H-pyrazolo[3,4-d]pyrimidin-6-yl)amino)bicyclo[1.1.1]pentane-1-carbonitrile], the EC50 amounted to 443 nM. Under `Cc1cc(/C=C/C#N)cc(C)c1Oc1nc(NC23CC(C#N)(C2)C3)nc2cn(C(C)C)nc12` [Compound 108] stands 611 nM. The compound `COc1n[nH]c2nc(NC34CC(C#N)(C3)C4)nc(Oc3c(C)cc(/C=C/C#N)cc3C)c12` [Compound 109, (E)-3-((4-(4-(2-cyanovinyl)-2,6-dimethylphenoxy)-3-methoxy-1H-pyrazolo[3,4-d]pyrimidin-6-yl)amino)bicyclo[1.1.1]pentane-1-carbonitrile] came in with an EC50 of 200 nM. For `Cc1cc(/C=C/C#N)cc(C)c1Oc1nc(NC23CC(C#N)(C2)C3)nc2[nH]nc(O)c12` [Compound 110, (E)-3-((4-(4-(2-cyanovinyl)-2,6-dimethylphenoxy)-3-hydroxy-1H-pyrazolo[3,4-d]pyrimidin-6-yl)amino)bicyclo[1.1.1]pentane-1-carbonitrile], the EC50 was greater than 1000 nM. The same measure for `Cc1cc(/C=C/C#N)cc(C)c1Oc1nc(NC23CC(C#N)(C2)C3)nc2noc(C)c12` [Compound 111, (E)-3-((4-(4-(2-cyanovinyl)-2,6-dimethylphenoxy)-3-methylisoxazolo[3,4-d]pyrimidin-6-yl)amino)bicyclo[1.1.1]pentane-1-carbonitrile]: 30.6 nM; for `Cc1cc(/C=C/C#N)cc(C)c1Oc1nc(NC23CC(C#N)(C2)C3)nc2c(C)nn(C)c12` [Compound 121]: 53.2 nM; for `COCCn1cc2c(Oc3c(C)cc(/C=C/C#N)cc3C)nc(NC34CC(C#N)(C3)C4)nc2n1` [Compound 123, 3-[[4-[4-[(E)-2-cyanovinyl]-2,6-dimethyl-phenoxy]-2-(2-methoxyethyl)pyrazolo[3,4-d]pyrimidin-6-yl]amino]bicyclo[1.1.1]pentane-1-carbonitrile]: 59.8 nM. In turn, `Cc1cc(/C=C/C#N)cc(C)c1Oc1nc(NC23CC(C#N)(C2)C3)nc2c1c(N)nn2C` [Compound 125, 3-[[3-amino-4-[4-[(E)-2-cyanovinyl]-2,6-dimethyl-phenoxy]-1-methyl-pyrazolo[3,4-d]pyrimidin-6-yl]amino]bicyclo[1.1.1]pentane-1-carbonitrile] had an EC50 of 111 nM. `Cc1cc(/C=C/C#N)cc(C)c1Oc1nc(NC23CC(C#N)(C2)C3)nc2[nH]nc(C(C)C)c12` [Compound 126, 3-[[4-[4-[(E)-2-cyanovinyl]-2,6-dimethyl-phenoxy]-3-isopropyl-1H-pyrazolo[3,4-d]pyrimidin-6-yl]amino]bicyclo[1.1.1]pentane-1-carbonitrile] had a 50% effective concentration (EC50) of 119 nM. For `Cc1cc(/C=C/C#N)cc(C)c1Oc1nc(NC23CC(C#N)(C2)C3)nc2nn(C3CCOCC3)cc12` [Compound 127, 3-[[4-[4-[(E)-2-cyanovinyl]-2,6-dimethyl-phenoxy]-2-tetrahydropyran-4-yl-pyrazolo[3,4-d]pyrimidin-6-yl]amino]bicyclo[11.1.1]pentane-1-carbonitrile], the EC50 stood at 149 nM. On to `Cc1cc(/C=C/C#N)cc(C)c1Oc1nc(NC23CC(C#N)(C2)C3)nc2c1CNC2` [Compound 135, (E)-3-((4-(4-(2-cyanovinyl)-2,6-dimethylphenoxy)-6,7-dihydro-5H-pyrrolo[3,4-d]pyrimidin-2-yl)amino)bicyclo[1.1.1]pentane-1-carbonitrile], for which the EC50 was found to be 275 nM. Compound `Cc1cc(/C=C/C#N)cc(C)c1Oc1nc(NC23CC(C#N)(C2)C3)nc2c1C(C)NC2=O` (stereo not shown) [Compound 136, (E)-3-((4-(4-(2-cyanovinyl)-2,6-dimethylphenoxy)-5-methyl-7-oxo-6,7-dihydro-5H-pyrrolo[3,4-d]pyrimidin-2-yl)amino)bicyclo[1.1.1]pentane-1-carbonitrile] gave an EC50 of 15 nM. `Cc1cc(/C=C/C#N)cc(C)c1Oc1nc(NC23CC(C#N)(C2)C3)nc2c1[C@@H](C)NC2=O` [Compound 137, 3-[[(5R)-4-[4-[(E)-2-cyanovinyl]-2,6-dimethyl-phenoxy]-5-methyl-7-oxo-5,6-dihydropyrrolo[3,4-d]pyrimidin-2-yl]amino]bicyclo[1.1.1]pentane-1-carbonitrile] yielded an EC50 of 6.9 nM. Turning to `Cc1cc(/C=C/C#N)cc(C)c1Oc1nc(NC23CC(C#N)(C2)C3)nc2c1[C@H](C)NC2=O` [Compound 138, 3-[[(5S)-4-[4-[(E)-2-cyanovinyl]-2,6-dimethyl-phenoxy]-5-methyl-7-oxo-5,6-dihydropyrrolo[3,4-d]pyrimidin-2-yl]amino]bicyclo[1.1.1]pentane-1-carbonitrile], the EC50 is 18.3 nM. Consider `C=C1NC(=O)c2nc(NC34CC(C#N)(C3)C4)nc(Oc3c(C)cc(/C=C/C#N)cc3C)c21` [Compound 139, (E)-3-((4-(4-(2-cyanovinyl)-2,6-dimethylphenoxy)-5-methylene-7-oxo-6,7-dihydro-5H-pyrrolo[3,4-d]pyrimidin-2-yl)amino)bicyclo[1.1.1]pentane-1-carbonitrile], for which the EC50 was determined as 8.27 nM. `Cc1cc(/C=C/C#N)cc(C)c1Oc1nc(NC23CC(C#N)(C2)C3)nc2c1C(C)N(C)C2=O` (stereo not shown) [Compound 140, (E)-3-((4-(4-(2-cyanovinyl)-2,6-dimethylphenoxy)-5,6-dimethyl-7-oxo-6,7-dihydro-5H-pyrrolo[3,4-d]pyrimidin-2-yl)amino)bicyclo[1.1.1]pentane-1-carbonitrile] yielded an EC50 of 14.3 nM. The same measure for `Cc1cc(/C=C/C#N)cc(C)c1Oc1nc(NC23CC(C#N)(C2)C3)nc2c1C(C)(O)N(C)C2=O` (stereo not shown) [Compound 141, (E)-3-((4-(4-(2-cyanovinyl)-2,6-dimethylphenoxy)-5-hydroxy-5,6-dimethyl-7-oxo-6,7-dihydro-5H-pyrrolo[3,4-d]pyrimidin-2-yl)amino)bicyclo[1.1.1]pentane-1-carbonitrile]: 73 nM. Under `CCn1cc2c(Oc3c(C)cc(/C=C/C#N)cc3C)nc(NC34CC(C#N)(C3)C4)nc2n1` [Compound 143, 3-[[4-[4-[(E)-2-cyanovinyl]-2,6-dimethyl-phenoxy]-2-ethyl-pyrazolo[3,4-d]pyrimidin-6-yl]amino]bicyclo[1.1.1]pentane-1-carbonitrile] stands 58.5 nM; under `Cc1cc(/C=C/C#N)cc(C)c1Oc1nc(NC23CC(C#N)(C2)C3)nc2nn(C3CC3)cc12` [Compound 144, (E)-3-((4-(4-(2-cyanovinyl)-2,6-dimethylphenoxy)-2-cyclopropyl-2H-pyrazolo[3,4-d]pyrimidin-6-yl)amino)bicyclo[1.1.1]pentane-1-carbonitrile], 81 nM.

Turning to `Cc1cc(/C=C/C#N)cc(C)c1Oc1nc(NC23CC(C#N)(C2)C3)nc2nn(CC3CC3)cc12` [Compound 145, (E)-3-((4-(4-(2-cyanovinyl)-2,6-dimethylphenoxy)-2-(cyclopropylmethyl)-2H-pyrazolo[3,4-d]pyrimidin-6-yl)amino)bicyclo[1.1.1]pentane-1-carbonitrile], the EC50 turned out to be 89.1 nM. The compound `COc1ccc(CN2C(=O)C(C)(C)c3c(Oc4c(C)cc(/C=C/C#N)cc4C)nc(NC45CC(C#N)(C4)C5)nc32)cc1` [Compound 146, (E)-3-((4-(4-(2-cyanovinyl)-2,6-dimethylphenoxy)-7-(4-methoxybenzyl)-5,5-dimethyl-6-oxo-6,7-dihydro-5H-pyrrolo[2,3-d]pyrimidin-2-yl)amino)bicyclo[1.1.1]pentane-1-carbonitrile] returned an EC50 of 35.4 nM. For the compound `Cc1cc(/C=C/C#N)cc(C)c1Oc1nc(NC23CC(C#N)(C2)C3)nc2c1CNC2=O` [Compound 153, (E)-3-((4-(4-(2-cyanovinyl)-2,6-dimethylphenoxy)-7-oxo-6,7-dihydro-5H-pyrrolo[3,4-d]pyrimidin-2-yl)amino)bicyclo[1.1.1]pentane-1-carbonitrile], the EC50 came out at 27.5 nM. Compound `Cc1cc(/C=C/C#N)cc(C)c1Oc1nc(NC23CC(C#N)(C2)C3)nc2nc(C3CCOCC3)n(C(F)F)c12` [Compound 176, (E)-3-((6-(4-(2-cyanovinyl)-2,6-dimethylphenoxy)-7-(difluoromethyl)-8-(tetrahydro-2H-pyran-4-yl)-7H-purin-2-yl)amino)bicyclo[1.1.1]pentane-1-carbonitrile] returned an EC50 of 45 nM. Under `Cc1cc(/C=C/C#N)cc(C)c1Oc1nc(NC23CC(C#N)(C2)C3)nc2nc(-c3ccn(C)n3)n(C(F)F)c12` [Compound 177, (E)-3-((6-(4-(2-cyanovinyl)-2,6-dimethylphenoxy)-7-(difluoromethyl)-8-(1-methyl-1H-pyrazol-3-yl)-7H-purin-2-yl)amino)bicyclo[1.1.1]pentane-1-carbonitrile] stands 45.3 nM; under `Cc1cc(/C=C/C#N)cc(C)c1Oc1nc(NC23CC(C#N)(C2)C3)nc2nc(C(F)F)n(C(F)F)c12` [Compound 178, (E)-3-((6-(4-(2-cyanovinyl)-2,6-dimethylphenoxy)-7,8-bis(difluoromethyl)-7H-purin-2-yl)amino)bicyclo[1.1.1]pentane-1-carbonitrile], 25.7 nM; under `Cc1cc(/C=C/C#N)cc(C)c1Oc1nc(NC23CC(C#N)(C2)C3)nc2nc(C(C)O)n(C(F)F)c12` (stereo not shown) [Compound 179, (E)-3-((6-(4-(2-cyanovinyl)-2,6-dimethylphenoxy)-7-(difluoromethyl)-8-(1-hydroxyethyl)-7H-purin-2-yl)amino)bicyclo[1.1.1]pentane-1-carbonitrile], 18.1 nM. The same measure for `Cc1cc(/C=C/C#N)cc(C)c1Oc1nc(NC23CC(C#N)(C2)C3)nc2c1[C@@H](C)N(C1CC1)C2=O` [Compound 180, (R,E)-3-((4-(4-(2-cyanovinyl)-2,6-dimethylphenoxy)-6-cyclopropyl-5-methyl-7-oxo-6,7-dihydro-5H-pyrrolo[3,4-d]pyrimidin-2-yl)amino)bicyclo[1.1.1]pentane-1-carbonitrile]: 92.9 nM. For the compound `Cc1cc(/C=C/C#N)cc(C)c1Oc1nc(NC23CC(C#N)(C2)C3)nc2c1[C@H](C)N(C1CC1)C2=O` [Compound 181, (S,E)-3-((4-(4-(2-cyanovinyl)-2,6-dimethylphenoxy)-6-cyclopropyl-5-methyl-7-oxo-6,7-dihydro-5H-pyrrolo[3,4-d]pyrimidin-2-yl)amino)bicyclo[1.1.1]pentane-1-carbonitrile], the EC50 amounted to 20.5 nM.

By EC50 is commonly meant the concentration at which the effect is half-maximal. Low readings indicate greater potency, high ones weaker potency.
